How the values were obtained:
[1] = biological target: T1, DENV4 FL NS5 (Dengue virus type 4, UniProt P09866); format: biochemical
T1 construct: 100 nM DENV FL NS5 protein was added; made in house

[2] = biological target: T2, DENV3 FL NS5 (Dengue virus type 3, UniProt Q6YMS4); settings: read-out: DENV FL NS5 de novo initiation FAPA, IC50, DENV3; cited from earlier work
T2 construct: 100 nM DENV FL NS5 protein was added; made in house

[3] = test system: HuH-7; test: in vitro; format: cell-based; settings: HuH-7 (DENV2 replicon cells); 48 hr; ATP levels
Method: A549, BHK-21 and Huh7 cells bearing stable DENV2 sub-genomic replicon or transiently electroporated DENV2-NGC replicon or infectious virus cDNAs were seeded into 384-well microplate (3,000 cells per well). After over-night incubation at 37°C with 5% CO2, the cells were treated with 2-fold serially diluted compounds, starting from 20 or 50 μM. At 48 hr of post-incubation, renilla luciferase activities were measured with the ViviRen live-cell substrate (Promega, USA) according to the manufacturer’s protocol. CellTiter-Glo reagent (Promega, USA) was then added to determine cytotoxic effects of compounds. For the HCV replicon assay, Huh-7.5 cells harboring the HCV replicon were seeded into a 96-well microplate (20,000 cells per well). At 48 hr after compound treatment, cells were assayed for firefly luciferase activity by using a Bright-Glo luciferase assay (Promega, USA). NITD-008, a nucleoside inhibitor of DENV and HCV was added as a control.

[4] = biological target: T3, DENV2 FL NS5 (Dengue virus type 2, UniProt P14340); test: DENV2 FL NS5 de novo initiation FAPA assay; format: biochemical; settings: one experiment; read-out: DENV FL NS5 de novo initiation FAPA, IC50, DENV2
T3 construct: made in house
Method: (§1) DENV1-4 FL NS5 dnI assays were performed as described previously. Briefly, compounds from 0–20 or -100 μM concentrations are two-fold serially diluted into 384-well black opaque plates (Corning Costar), after which 100 nM DENV FL NS5 protein was added and the plates incubated at RT for 20 min. RNA and ATTO-CTP, ATP, GTP and UTP were then added and the plates incubated for another 120 min. […] For order-of-addition experiments, DENV4 FL NS5 was incubated for one hour at RT with RNA, ATP, and GTP or RNA, ATP, GTP and ATTO-CTP, followed by exposure to serially diluted compounds for 20 min at RT. The missing components (ATTO-CTP and UTP or UTP alone) were added and the reactions continued for 120 min after which STOP buffer was added as before. All datapoints were performed in duplicate wells. Each compound was tested at least twice.
(§2) 2 Co mpound testing with DENV dn I FAPA assays. Final dn I assa y reaction mixtures
(§3) 3 contained 100 nM DENV 5 ´UTR-L-3´UTR IVT RNA, 20 µ M ATP, 20 µM GTP, 20 µM
(§4) 4 UTP, 5 µM ATTO -CTP, and 100 nM of DENV FL NS5 protein in 15 µl in assa y buffer
(§5) 5 comprising 50 mM Tris/ HCl, pH 7.5, 10 mM KCl, 1 mM MgCl2, 0.3 mM MnCl2 (DENV2
(§6) 6 and 4) or 1 mM MnCl 2 (DENV1 and 3), 0.001% Triton- X-100 and 10 µ M cystein e [ 1] . To
(§7) 7 perform dose-respons e inhibition measurements, compounds from 0- 20 or - 100 µM
(§8) 8 concentr ations are two -fold seriall y diluted into 384-well black opaqu e plat es (Corning
(§9) 9 Costar), after which 100 nM DENV FL NS5 protein was added into resp ect ive wells. The
(§10) 10 plates wer e sealed, b riefl y shak en and centrif uged at 1500 rpm for 30 sec and incubated at RT
(§11) 11 for 15 min. Thereafter,RNA and ATTO -CTP, ATP, GTP and UTP were added to the wells to
(§12) 12 start the reactions. The pl ates wer e re-seal ed, shaken and centrifuged as before, followed b y
(§13) 13 incubation RT for 120 min.
(§14) 15 intestinal phosphatase (CIP), re- incubation at RT for 60 min and read on a Tecan Safire II
(§15) 16 microplate reader. For o r der-of-addition experiments, DENV4 FL NS5 was incubated for one
(§16) 17 hour at RT with RNA, ATP, and GTP or RNA, ATP, GTP and ATTO-CTP, followed by
(§17) 18 exposure to seriall y dilut ed compounds for 20 mi n at RT. The missing components (ATTO-
(§18) 19 CTP and UTP or UTP alone) were added and the reactions continued for 120 min after which
(§19) 20 STOP buffer was added as before. All datapoints were performed in duplicate wells. Each
21 compound was tested at l east twice.
23 Compound testing in DENV1-4 infected cells by high content imaging. Approximatel y 7
24 × 10^3 A549 cells per well were s eeded into 384-well plates in Ham’s F-12K medium

[5] = biological target: T1, DENV4 FL NS5; test: biochemical; settings: Enzyme + compound 20 min, then ssRNA and nucleotides, 2 hr; averaged from ≥3 experiments; read-out: DENV FL NS5 de novo initiation FAPA, IC50, DENV4
Method: as §1, §2, §3, §4, §5, §6, §7, §8, §9, §10, §11, §12, §13, §14, §15, §16, §17, §18, §19
21 compound was tested at l east twice. […]

T1 sequence (P09866 2488-3387): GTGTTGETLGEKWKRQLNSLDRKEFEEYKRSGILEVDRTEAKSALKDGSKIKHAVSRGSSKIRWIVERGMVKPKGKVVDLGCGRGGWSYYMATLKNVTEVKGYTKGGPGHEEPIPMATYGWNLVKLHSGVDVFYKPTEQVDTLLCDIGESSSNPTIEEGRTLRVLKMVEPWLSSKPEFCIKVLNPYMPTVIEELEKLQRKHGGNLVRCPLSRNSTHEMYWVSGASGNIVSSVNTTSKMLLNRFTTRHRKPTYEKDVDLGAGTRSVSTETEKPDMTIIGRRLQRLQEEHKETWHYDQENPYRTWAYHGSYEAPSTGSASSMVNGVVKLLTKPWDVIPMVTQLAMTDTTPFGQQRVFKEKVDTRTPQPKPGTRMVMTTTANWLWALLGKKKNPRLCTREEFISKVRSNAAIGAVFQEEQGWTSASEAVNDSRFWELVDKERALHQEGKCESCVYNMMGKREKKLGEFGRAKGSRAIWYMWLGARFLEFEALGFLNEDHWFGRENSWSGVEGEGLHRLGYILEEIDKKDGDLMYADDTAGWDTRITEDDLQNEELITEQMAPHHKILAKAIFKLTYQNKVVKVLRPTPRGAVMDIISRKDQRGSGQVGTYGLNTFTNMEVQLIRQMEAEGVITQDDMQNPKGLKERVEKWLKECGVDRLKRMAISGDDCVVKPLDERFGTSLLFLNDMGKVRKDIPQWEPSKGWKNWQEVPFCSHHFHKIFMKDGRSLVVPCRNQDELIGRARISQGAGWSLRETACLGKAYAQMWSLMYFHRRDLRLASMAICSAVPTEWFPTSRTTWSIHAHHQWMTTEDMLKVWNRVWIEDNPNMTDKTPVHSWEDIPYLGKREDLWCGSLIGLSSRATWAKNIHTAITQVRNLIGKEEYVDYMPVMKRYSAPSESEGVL
T2 sequence (Q6YMS4 2491-3390): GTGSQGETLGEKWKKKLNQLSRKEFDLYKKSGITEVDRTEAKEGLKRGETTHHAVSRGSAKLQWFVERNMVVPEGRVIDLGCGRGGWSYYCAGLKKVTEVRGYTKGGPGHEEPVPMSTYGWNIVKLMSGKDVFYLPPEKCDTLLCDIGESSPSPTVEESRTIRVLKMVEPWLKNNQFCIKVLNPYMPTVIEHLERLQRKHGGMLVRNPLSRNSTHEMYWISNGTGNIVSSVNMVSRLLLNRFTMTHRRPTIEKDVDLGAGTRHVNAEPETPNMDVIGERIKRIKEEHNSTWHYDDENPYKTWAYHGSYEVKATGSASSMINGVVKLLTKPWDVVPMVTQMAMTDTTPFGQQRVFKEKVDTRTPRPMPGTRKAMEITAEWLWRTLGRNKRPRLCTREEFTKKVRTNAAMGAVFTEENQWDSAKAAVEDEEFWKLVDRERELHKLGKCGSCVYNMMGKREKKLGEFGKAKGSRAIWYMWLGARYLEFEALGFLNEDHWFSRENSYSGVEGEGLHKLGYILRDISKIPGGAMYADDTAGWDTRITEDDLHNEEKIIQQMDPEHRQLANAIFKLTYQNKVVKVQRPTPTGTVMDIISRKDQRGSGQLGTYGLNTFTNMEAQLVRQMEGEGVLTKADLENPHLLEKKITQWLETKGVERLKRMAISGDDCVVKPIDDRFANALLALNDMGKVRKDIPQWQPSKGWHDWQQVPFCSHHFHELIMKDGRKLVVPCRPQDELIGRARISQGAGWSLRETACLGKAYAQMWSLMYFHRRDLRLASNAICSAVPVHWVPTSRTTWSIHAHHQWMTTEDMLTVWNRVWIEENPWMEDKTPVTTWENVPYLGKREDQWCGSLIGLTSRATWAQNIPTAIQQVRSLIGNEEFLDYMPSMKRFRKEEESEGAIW

With COc1cc(OC)c(-c2ccc(C#CCO)s2)cc1C(=O)NS(=O)(=O)c1cccc2cccnc12 [Compound 29] the “mode of inhibition with respect to viral RNA substrate” value ([1]; Lineweaver-Burk plots, 0–500 nM RNA) was “uncompetitive”, the “mode of inhibition with respect to GTP” value ([1]; Lineweaver-Burk plots, 0–50 μM GTP) was “uncompetitive inhibition” and the “mode of inhibition at high GTP concentrations” value ([1]; high GTP concentrations) was “non-competitive mode of inhibition”.

For COc1cccc(S(=O)(=O)NC(=O)c2cc(-c3ccc(C#CCO)s3)c(OC)cc2OC)c1 [Compound 27], the IC50 [2] is given as 0.048 µM and the CC50 [3] is given as greater than 50 µM.

COc1cccc(S(=O)(=O)NC(=O)c2cc(-c3ccc(C#CCO)s3)c(OC)cc2C)c1 [Compound 26i] showed an IC50 [4] of 0.086 µM and an IC50 [5] of 0.109 ± 0.061 µM.
